The source of these data is article PMC9856672, “SGC-CAMKK2-1: A Chemical Probe for CAMKK2” (Cells, 2023).

For one experiment, the target named is T1, PLK2 (Homo sapiens, UniProt Q9NYY3).
T1 construct: purchased Eurofins DiscoverX KINOMEscan
The experiment is described as follows: DiscoverX KINOMEscan binding assay at 1 μM, PLK2. To be noted: Compound Concentration 1000 nM, read-out: Percent Control. From the text: (§1) Supplement cells-12-00287-s001.zip/File S2. KinomeScan data for the CAMKK2 probe and negative control.xlsx, sheet "SGC-CAMKK2-1" | column: Percent Control

A further experiment concerns the target T2, CDK5 (Homo sapiens, UniProt Q00535).
T2 construct: purchased Eurofins DiscoverX KINOMEscan
Briefly: KINOMEscan 1 μM, CDK5. It is filed as binding. The settings on record: 1000 nM; Entrez CDK5; read-out: Percent Control.
Description: as §1

Another experiment concerns the target T3, CDK11 (Homo sapiens, UniProt Q9BWU1).
T3 construct: purchased Eurofins DiscoverX KINOMEscan
The experiment is described as follows: KINOMEscan 1 μM, CDK11. The experiment is classed as binding. The settings on record: 1000 nM; Entrez CDK19; read-out: Percent Control.
Description: as §1

For a further experiment, the target named is T4, NEK6 (Homo sapiens, UniProt Q9HC98).
T4 construct: purchased Eurofins DiscoverX KINOMEscan
The experiment is described as follows: KINOMEscan 1 μM, NEK6. The experiment is classed as binding. The settings on record: 1000 nM; Entrez NEK6; read-out: Percent Control.
Description: as §1

The next experiment addresses T5, EGFR(G719C) (Homo sapiens, UniProt P00533, G719C).
T5 construct: purchased Eurofins DiscoverX KINOMEscan
The experiment is described as follows: KINOMEscan 1 μM, EGFR(G719C). The experiment is classed as binding. To be noted: 1000 nM; Entrez EGFR; read-out: Percent Control.
Description: as §1

In another experiment the target is T6, LOK (Homo sapiens, UniProt O94804).
T6 construct: purchased Eurofins DiscoverX KINOMEscan
The experiment is described as follows: KINOMEscan 1 μM, LOK. It is filed as binding. To be noted: 1000 nM; Entrez STK10; read-out: Percent Control.
Description: as §1

The target of a further experiment is T7, PHKG2 (Homo sapiens, UniProt P15735).
T7 construct: purchased Eurofins DiscoverX KINOMEscan
Briefly: DiscoverX KINOMEscan binding assay at 1 μM, PHKG2. To be noted: Compound Concentration 1000 nM, read-out: Percent Control.
Description: as §1

The test system of another experiment is EGFR(L747-T751del,Sins). Briefly: KINOMEscan 1 μM, EGFR(L747-T751del,Sins). The settings on record: 1000 nM; Entrez EGFR. The experiment is classed as binding, human.
Description: as §1

For the next experiment, the target named is T8, GRK2 (Homo sapiens, UniProt P25098).
T8 construct: purchased Eurofins DiscoverX KINOMEscan
The experiment is described as follows: KINOMEscan 1 μM, GRK2. It is filed as binding. The settings on record: 1000 nM; Entrez ADRBK1; read-out: Percent Control.
Description: as §1

The next experiment deals with T9, WEE1 (Homo sapiens, UniProt P30291).
T9 construct: purchased Eurofins DiscoverX KINOMEscan
The experiment is described as follows: KINOMEscan 1 μM, WEE1. The settings on record: 1000 nM; Entrez WEE1; read-out: Percent Control. It is filed as binding.
Description: as §1

The target in another experiment is T10, AURKB (Homo sapiens, UniProt Q96GD4).
T10 construct: purchased Eurofins DiscoverX KINOMEscan
The experiment is described as follows: KINOMEscan 1 μM, AURKB. The experiment is classed as binding. To be noted: 1000 nM; Entrez AURKB; read-out: Percent Control.
Description: as §1

The next experiment has as its target T11, IKK-alpha (Homo sapiens, UniProt O15111).
T11 construct: purchased Eurofins DiscoverX KINOMEscan
The experiment is described as follows: KINOMEscan 1 μM, IKK-alpha. The experiment is classed as binding. To be noted: 1000 nM; Entrez CHUK; read-out: Percent Control.
Description: as §1

A further experiment addresses T12, LATS1 (Homo sapiens, UniProt O95835).
T12 construct: purchased Eurofins DiscoverX KINOMEscan
Briefly: KINOMEscan 1 μM, LATS1. The experiment is classed as binding. The settings on record: 1000 nM; Entrez LATS1; read-out: Percent Control.
Description: as §1

For a further experiment, the target named is T13, ALK(L1196M) (Homo sapiens, UniProt Q9UM73, L1196M).
T13 construct: purchased Eurofins DiscoverX KINOMEscan
The experiment is described as follows: KINOMEscan 1 μM, ALK(L1196M). The settings on record: 1000 nM; Entrez ALK; read-out: Percent Control. It is filed as binding.
Description: as §1

In the next experiment the target is T14, ERK1 (Homo sapiens, UniProt P27361).
T14 construct: purchased Eurofins DiscoverX KINOMEscan
The experiment is described as follows: KINOMEscan 1 μM, ERK1. It is filed as binding. To be noted: 1000 nM; Entrez MAPK3; read-out: Percent Control.
Description: as §1

Another experiment concerns the target T15, VPS34 (Homo sapiens, UniProt Q8NEB9).
T15 construct: purchased Eurofins DiscoverX KINOMEscan
Briefly: DiscoverX KINOMEscan binding assay at 1 μM, VPS34. The settings on record: VPS34 (PIK3C3); Compound Concentration 1000 nM; read-out: Percent Control.
Description: as §1

The target of the next experiment is T16, CAMK2B (Homo sapiens, UniProt Q13554).
T16 construct: purchased Eurofins DiscoverX KINOMEscan
The experiment is described as follows: KINOMEscan 1 μM, CAMK2B. The settings on record: 1000 nM; Entrez CAMK2B; read-out: Percent Control. It is filed as binding.
Description: as §1

For experiment [1], the target named is T17, RSK2(Kin.Dom.1-N-terminal) (Homo sapiens, UniProt P51812).
T17 construct: RSK2(Kin.Dom.1-N-terminal); purchased Eurofins DiscoverX KINOMEscan
The experiment is described as follows: DiscoverX KINOMEscan binding assay at 1 μM, RSK2(Kin.Dom.1-N-terminal). To be noted: RSK2(Kin.Dom.1-N-terminal) (RPS6KA3); Compound Concentration 1000 nM; read-out: Percent Control.
Description: as §1

The target in a further experiment is T18, CAMK1 (Homo sapiens, UniProt Q14012).
T18 construct: purchased Eurofins DiscoverX KINOMEscan
The experiment is described as follows: KINOMEscan at 1 μM, CAMK1. It is filed as binding. The settings on record: 1000 nM, read-out: Percent Control. From the text: (§2) Supplement cells-12-00287-s001.zip/File S2. KinomeScan data for the CAMKK2 probe and negative control.xlsx, sheet "SGC-CAMKK2-1N" | column: Percent Control

The target of a further experiment is T19, PKMYT1 (Homo sapiens, UniProt Q99640).
T19 construct: purchased Eurofins DiscoverX KINOMEscan
The experiment is described as follows: KINOMEscan at 1 μM, PKMYT1. The settings on record: 1000 nM, read-out: Percent Control. It is filed as binding.
Description: as §2

Another experiment has as its target T20, HUNK (Homo sapiens, UniProt P57058).
T20 construct: purchased Eurofins DiscoverX KINOMEscan
Briefly: KINOMEscan at 1 μM, HUNK. The experiment is classed as binding. The settings on record: 1000 nM, read-out: Percent Control.
Description: as §2

The next experiment has as its target T21, LRRK2(G2019S) (Homo sapiens, UniProt Q5S007, G2019S).
T21 construct: purchased Eurofins DiscoverX KINOMEscan
The experiment is described as follows: KINOMEscan at 1 μM, LRRK2(G2019S). The experiment is classed as binding. The settings on record: 1000 nM, read-out: Percent Control.
Description: as §2

In another experiment the target is T22, FGFR4 (Homo sapiens, UniProt P22455).
T22 construct: purchased Eurofins DiscoverX KINOMEscan
Briefly: KINOMEscan binding assay at 1 μM, FGFR4. To be noted: Compound Concentration 1000 nM; read-out: Percent Control.
Description: as §2

The target of the next experiment is T23, MEK2 (Homo sapiens, UniProt P36507).
T23 construct: purchased Eurofins DiscoverX KINOMEscan
Briefly: KINOMEscan at 1 μM, MEK2. The settings on record: 1000 nM, read-out: Percent Control. It is filed as binding.
Description: as §2

For experiment [2], the target named is T24, ABL1(H396P)-nonphosphorylated (Homo sapiens, UniProt P00519, H396P).
T24 construct: purchased Eurofins DiscoverX KINOMEscan
Briefly: KINOMEscan at 1 μM, ABL1(H396P)-nonphosphorylated. The experiment is classed as binding. To be noted: 1000 nM, read-out: Percent Control.
Description: as §2

Another experiment addresses T25, PIK3CA(H1047Y) (Homo sapiens, UniProt P42336, H1047Y).
T25 construct: purchased Eurofins DiscoverX KINOMEscan
Briefly: KINOMEscan at 1 μM, PIK3CA(H1047Y). It is filed as binding. The settings on record: 1000 nM, read-out: Percent Control.
Description: as §2

A further experiment addresses T26, TRKC (Homo sapiens, UniProt Q16288).
T26 construct: purchased Eurofins DiscoverX KINOMEscan
Briefly: KINOMEscan at 1 μM, TRKC. The experiment is classed as binding. To be noted: 1000 nM, read-out: Percent Control.
Description: as §2

The target of the next experiment is T27, PIK3CA(H1047L) (Homo sapiens, UniProt P42336, H1047L).
T27 construct: purchased Eurofins DiscoverX KINOMEscan
The experiment is described as follows: KINOMEscan at 1 μM, PIK3CA(H1047L). The experiment is classed as binding. To be noted: 1000 nM, read-out: Percent Control.
Description: as §2

In experiment [3] the target is T28, ABL1(H396P)-phosphorylated (Homo sapiens, UniProt P00519, H396P).
T28 construct: purchased Eurofins DiscoverX KINOMEscan
The experiment is described as follows: KINOMEscan at 1 μM, ABL1(H396P)-phosphorylated. It is filed as binding. To be noted: 1000 nM, read-out: Percent Control.
Description: as §2

The target in a further experiment is T29, MTOR (Homo sapiens, UniProt P42345).
T29 construct: purchased Eurofins DiscoverX KINOMEscan
The experiment is described as follows: KINOMEscan binding assay at 1 μM, MTOR. The settings on record: Compound Concentration 1000 nM; read-out: Percent Control.
Description: as §2

In the next experiment the target is T30, BRAF (Homo sapiens, UniProt P15056).
T30 construct: purchased Eurofins DiscoverX KINOMEscan
The experiment is described as follows: KINOMEscan at 1 μM, BRAF. To be noted: 1000 nM, read-out: Percent Control. It is filed as binding.
Description: as §2

In the next experiment the target is T31, PRKCI (Homo sapiens, UniProt P41743).
T31 construct: purchased Eurofins DiscoverX KINOMEscan
The experiment is described as follows: KINOMEscan at 1 μM, PRKCI. It is filed as binding. To be noted: 1000 nM, read-out: Percent Control.
Description: as §2

T19 sequence (Q99640 whole entry): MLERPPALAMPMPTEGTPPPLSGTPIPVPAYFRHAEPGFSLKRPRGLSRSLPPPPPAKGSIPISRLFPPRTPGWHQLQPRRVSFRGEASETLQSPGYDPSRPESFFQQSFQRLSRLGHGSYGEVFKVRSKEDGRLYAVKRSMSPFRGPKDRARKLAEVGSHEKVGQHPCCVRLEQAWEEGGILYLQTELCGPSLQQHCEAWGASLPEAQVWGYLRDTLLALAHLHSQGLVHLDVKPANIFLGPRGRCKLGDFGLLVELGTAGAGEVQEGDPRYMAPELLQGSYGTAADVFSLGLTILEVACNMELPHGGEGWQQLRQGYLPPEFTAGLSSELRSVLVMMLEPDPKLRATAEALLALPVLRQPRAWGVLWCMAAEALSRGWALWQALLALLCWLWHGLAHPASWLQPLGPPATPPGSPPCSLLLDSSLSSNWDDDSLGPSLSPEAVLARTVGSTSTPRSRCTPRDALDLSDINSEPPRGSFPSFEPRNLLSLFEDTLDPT
T10 sequence (Q96GD4 whole entry): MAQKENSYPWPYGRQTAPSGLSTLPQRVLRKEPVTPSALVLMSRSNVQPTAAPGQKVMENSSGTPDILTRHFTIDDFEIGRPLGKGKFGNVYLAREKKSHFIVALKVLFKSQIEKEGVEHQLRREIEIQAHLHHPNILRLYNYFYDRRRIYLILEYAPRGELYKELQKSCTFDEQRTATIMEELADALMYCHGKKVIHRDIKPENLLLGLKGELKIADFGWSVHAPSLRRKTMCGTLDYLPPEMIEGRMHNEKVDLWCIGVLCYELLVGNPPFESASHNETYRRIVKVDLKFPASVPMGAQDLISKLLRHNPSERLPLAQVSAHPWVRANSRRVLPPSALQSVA
T31 sequence (P41743 whole entry): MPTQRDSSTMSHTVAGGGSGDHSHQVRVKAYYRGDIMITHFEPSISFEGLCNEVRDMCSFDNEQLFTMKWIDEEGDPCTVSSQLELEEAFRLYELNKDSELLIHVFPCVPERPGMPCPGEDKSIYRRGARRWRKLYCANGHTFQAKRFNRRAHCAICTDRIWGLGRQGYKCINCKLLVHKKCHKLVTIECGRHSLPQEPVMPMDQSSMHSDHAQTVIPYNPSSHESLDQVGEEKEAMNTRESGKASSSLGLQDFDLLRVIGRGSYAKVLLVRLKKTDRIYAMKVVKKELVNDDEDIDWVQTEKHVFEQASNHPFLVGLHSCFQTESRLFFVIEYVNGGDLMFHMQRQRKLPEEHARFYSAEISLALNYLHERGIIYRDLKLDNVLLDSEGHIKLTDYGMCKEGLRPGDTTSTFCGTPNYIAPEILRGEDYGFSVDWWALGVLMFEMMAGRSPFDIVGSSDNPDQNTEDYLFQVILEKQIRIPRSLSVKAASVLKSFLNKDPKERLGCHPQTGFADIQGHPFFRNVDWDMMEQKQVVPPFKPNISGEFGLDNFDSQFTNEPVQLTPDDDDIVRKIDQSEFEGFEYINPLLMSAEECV
T21 sequence (Q5S007 whole entry G2019S): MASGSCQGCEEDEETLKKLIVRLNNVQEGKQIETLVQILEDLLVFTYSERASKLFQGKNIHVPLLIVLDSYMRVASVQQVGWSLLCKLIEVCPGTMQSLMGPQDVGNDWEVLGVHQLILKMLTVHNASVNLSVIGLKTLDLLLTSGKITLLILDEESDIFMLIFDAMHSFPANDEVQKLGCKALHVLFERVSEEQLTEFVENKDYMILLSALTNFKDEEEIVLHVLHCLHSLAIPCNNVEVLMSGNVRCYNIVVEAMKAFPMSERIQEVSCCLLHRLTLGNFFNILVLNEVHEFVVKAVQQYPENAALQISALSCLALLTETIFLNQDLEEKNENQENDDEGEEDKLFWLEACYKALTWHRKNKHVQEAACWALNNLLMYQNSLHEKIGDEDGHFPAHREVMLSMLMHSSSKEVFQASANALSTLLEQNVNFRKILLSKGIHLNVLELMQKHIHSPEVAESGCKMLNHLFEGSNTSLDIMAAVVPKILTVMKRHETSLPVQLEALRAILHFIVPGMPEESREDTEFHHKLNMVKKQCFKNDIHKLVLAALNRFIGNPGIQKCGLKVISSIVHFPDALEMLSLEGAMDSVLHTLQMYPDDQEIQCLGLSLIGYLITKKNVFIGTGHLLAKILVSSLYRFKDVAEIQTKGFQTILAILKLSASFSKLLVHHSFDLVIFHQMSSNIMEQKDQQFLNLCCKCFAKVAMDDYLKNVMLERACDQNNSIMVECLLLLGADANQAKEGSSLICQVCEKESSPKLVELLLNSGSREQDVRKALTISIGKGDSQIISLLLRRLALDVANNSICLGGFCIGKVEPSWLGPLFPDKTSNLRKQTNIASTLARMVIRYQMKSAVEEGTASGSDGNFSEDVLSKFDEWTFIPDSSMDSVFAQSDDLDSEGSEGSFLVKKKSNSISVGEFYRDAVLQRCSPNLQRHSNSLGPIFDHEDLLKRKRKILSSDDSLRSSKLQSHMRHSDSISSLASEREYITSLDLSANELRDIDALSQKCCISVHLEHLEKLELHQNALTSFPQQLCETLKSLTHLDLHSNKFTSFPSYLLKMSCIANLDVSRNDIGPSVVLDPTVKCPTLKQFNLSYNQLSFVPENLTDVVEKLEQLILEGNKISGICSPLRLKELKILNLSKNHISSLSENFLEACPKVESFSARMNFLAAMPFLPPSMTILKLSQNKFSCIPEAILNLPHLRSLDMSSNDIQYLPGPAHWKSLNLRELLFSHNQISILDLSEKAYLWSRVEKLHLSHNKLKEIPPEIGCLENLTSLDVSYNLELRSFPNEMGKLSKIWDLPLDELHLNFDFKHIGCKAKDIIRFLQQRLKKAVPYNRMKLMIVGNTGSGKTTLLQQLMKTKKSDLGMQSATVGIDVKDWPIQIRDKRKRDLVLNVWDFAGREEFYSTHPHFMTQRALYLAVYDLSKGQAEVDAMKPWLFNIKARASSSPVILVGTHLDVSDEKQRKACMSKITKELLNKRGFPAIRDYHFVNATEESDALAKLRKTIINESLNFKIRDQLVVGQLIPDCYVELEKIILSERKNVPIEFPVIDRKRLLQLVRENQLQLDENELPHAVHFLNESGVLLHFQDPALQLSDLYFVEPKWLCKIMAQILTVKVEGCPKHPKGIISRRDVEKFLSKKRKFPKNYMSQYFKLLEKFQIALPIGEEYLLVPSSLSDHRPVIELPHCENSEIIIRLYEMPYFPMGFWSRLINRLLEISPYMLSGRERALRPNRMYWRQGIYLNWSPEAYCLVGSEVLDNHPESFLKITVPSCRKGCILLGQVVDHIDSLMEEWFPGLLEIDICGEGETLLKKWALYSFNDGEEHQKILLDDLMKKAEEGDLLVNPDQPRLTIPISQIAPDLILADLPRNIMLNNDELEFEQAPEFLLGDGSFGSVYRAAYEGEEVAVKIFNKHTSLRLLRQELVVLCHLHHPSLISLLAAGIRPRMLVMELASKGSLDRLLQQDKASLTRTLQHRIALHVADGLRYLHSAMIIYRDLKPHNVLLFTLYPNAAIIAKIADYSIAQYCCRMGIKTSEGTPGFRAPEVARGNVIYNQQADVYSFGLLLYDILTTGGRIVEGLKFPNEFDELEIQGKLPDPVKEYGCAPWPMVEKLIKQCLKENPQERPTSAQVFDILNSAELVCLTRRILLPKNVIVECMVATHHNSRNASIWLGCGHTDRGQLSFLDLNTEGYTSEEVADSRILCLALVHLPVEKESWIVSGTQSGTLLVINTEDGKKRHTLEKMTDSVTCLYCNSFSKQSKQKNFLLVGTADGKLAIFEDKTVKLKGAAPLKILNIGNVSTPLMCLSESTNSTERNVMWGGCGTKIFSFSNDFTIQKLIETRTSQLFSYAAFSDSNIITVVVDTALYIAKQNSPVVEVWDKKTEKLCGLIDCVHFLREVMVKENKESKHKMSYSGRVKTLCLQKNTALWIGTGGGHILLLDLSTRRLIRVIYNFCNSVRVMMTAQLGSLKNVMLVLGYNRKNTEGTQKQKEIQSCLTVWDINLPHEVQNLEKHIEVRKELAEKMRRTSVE
T23 sequence (P36507 whole entry): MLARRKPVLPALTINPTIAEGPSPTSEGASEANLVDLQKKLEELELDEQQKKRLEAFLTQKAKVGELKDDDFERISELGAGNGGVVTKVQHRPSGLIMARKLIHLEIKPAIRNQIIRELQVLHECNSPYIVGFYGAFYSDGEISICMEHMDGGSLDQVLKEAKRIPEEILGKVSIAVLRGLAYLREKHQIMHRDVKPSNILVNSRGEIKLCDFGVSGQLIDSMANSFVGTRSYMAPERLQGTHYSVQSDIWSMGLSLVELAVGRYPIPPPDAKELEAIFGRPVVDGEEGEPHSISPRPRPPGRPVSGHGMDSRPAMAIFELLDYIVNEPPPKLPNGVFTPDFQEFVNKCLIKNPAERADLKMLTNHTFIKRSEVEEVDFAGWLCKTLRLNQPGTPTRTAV
T14 sequence (P27361 whole entry): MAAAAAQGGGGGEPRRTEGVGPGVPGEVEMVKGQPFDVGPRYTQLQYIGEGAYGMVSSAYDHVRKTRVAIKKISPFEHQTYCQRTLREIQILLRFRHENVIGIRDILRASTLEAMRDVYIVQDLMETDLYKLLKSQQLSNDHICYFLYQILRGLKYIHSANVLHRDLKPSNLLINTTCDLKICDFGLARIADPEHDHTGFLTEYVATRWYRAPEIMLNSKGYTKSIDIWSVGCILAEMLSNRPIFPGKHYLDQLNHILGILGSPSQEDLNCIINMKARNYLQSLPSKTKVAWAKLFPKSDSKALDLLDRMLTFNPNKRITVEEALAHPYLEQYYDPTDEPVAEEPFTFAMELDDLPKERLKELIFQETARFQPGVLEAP
T2 sequence (Q00535 whole entry): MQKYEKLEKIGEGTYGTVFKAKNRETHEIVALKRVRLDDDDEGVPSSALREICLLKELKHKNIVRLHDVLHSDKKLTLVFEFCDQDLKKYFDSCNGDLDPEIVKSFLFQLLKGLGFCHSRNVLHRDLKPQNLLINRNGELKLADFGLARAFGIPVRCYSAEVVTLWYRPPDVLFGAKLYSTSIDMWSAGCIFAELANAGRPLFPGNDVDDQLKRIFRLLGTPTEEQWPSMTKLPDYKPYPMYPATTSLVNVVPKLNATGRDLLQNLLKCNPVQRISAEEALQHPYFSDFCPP

For `Cc1cccc(-c2cnc3occ(-c4ccc(C(=O)O)c(C5CCCC5)c4)c3c2)c1` [SGC-CAMKK2-1 (YL-36)], the remaining binding at 1 µM is 100% on PLK2; 100% on CDK5; 98% on CDK11; 100% at NEK6; 55% on EGFR(G719C); 100% on LOK. The remaining binding at 1 µM at PHKG2 is 100%; at GRK2, 100%; on WEE1 it was 82%; at AURKB it was 100%; on IKK-alpha, 100%; on LATS1 it was 100%. Moreover, the remaining binding at 1 µM on ALK(L1196M) worked out at 96%; at ERK1 it was 100%; at VPS34 it was 100%; at CAMK2B, 86%; in experiment [1] it was 100%. Besides, the “Percent Control” value in the experiment on EGFR(L747-T751del,Sins) is given as 85%.

`O=C(O)c1ccc(-c2coc3ncc(-c4ccccc4)cc23)cc1Cl` [SGC-CAMKK2-1N (UNC-YL-83)]: the remaining binding at 1 µM on CAMK1 worked out at 62%; at PKMYT1, 94%; on HUNK, 87%; on LRRK2(G2019S) it was 90%; on FGFR4 it was 100%; on MEK2 it was 88%. The remaining binding at 1 µM in [2] was found to be 64%; on PIK3CA(H1047Y), 59%; at TRKC, 78%; on PIK3CA(H1047L), 53%; in experiment [3], 74%; at MTOR, 100%. In addition, the remaining binding at 1 µM at BRAF turned out to be 84%; at PRKCI it was 79%.
